Results: patent US12697367B2, “Medicament for improving or preventing symptoms relating to retina and/or light reception and method for screening for substance capable of improving or preventing symptoms relating to retina and/or light reception” (Osaka University, priority 2018, dated 2026)

How the values were obtained:
[1] = tested on: BALB/c mice with light-induced damage (blue LED light); assay: Light-induced damage experiment in mice: measurement of thickness of photoreceptor layer; format: in vivo; conditions: tacrolimus 10 mg/kg subcutaneously every day for 6 days; blue light about 450 nm, about 7000 lx, 3 hours daily; vs DMSO control; FIG. 3
Method: For dark adaptation, BALB/c mice aged 4 weeks (Japan SLC, Inc.) were housed in the dark for 12 hours. […] For control mice, DMSO was administered. Mydriatic eye drops, Cyplegin (Santen Pharmaceutical Co., Ltd.), were administered in the dark 30 minutes before completion of dark adaptation. The mice were placed in a box with four mirrored walls and a mirrored floor, and exposed to blue light from a blue LED light. The wavelength of the blue LED light was about 450 nm, and the light reaching the mice was about 7000 lx. After exposure to blue light for 3 hours, the mice were housed under normal light conditions (about 30 lx light from fluorescent lamps) for 9 hours. This dark/light cycle repeated as one cycle for 6 days. In other words, administration of the drug and exposure to blue light (3 hours) were performed every day for 6 days to induce light-induced damage.
Mouse retinal sections prepared in the same manner as above were washed twice with PBS, and the nuclei were stained with DAPI. The thickness of the photoreceptor layer was measured as the distance from the optic nerve. Specifically, the images were acquired under a confocal laser scanning microscope (LSM 700, Carl Zeiss), and the thickness of the photoreceptor layer was measured using the image analysis software Metamorph (Molecular Devices).

[2] = tested on: BALB/c mice with light-induced damage (blue LED light); assay: Light-induced damage experiment in mice: immunofluorescence staining of the photoreceptor layer of the retina; format: in vivo; conditions: tacrolimus 10 mg/kg subcutaneously every day for 6 days
Method: For dark adaptation, BALB/c mice aged 4 weeks (Japan SLC, Inc.) were housed in the dark for 12 hours. […] For control mice, DMSO was administered. Mydriatic eye drops, […] Pharmaceutical Co., Ltd.), were administered in the dark 30 minutes before completion of dark adaptation. The mice were placed in a box with four mirrored walls and a mirrored floor, and exposed to blue light from a blue LED light. The wavelength of the blue LED light was about 450 nm, and the light reaching the mice was about 7000 lx. After exposure to blue light for 3 hours, the mice were housed under normal light conditions (about 30 lx light from fluorescent lamps) for 9 hours. This dark/light cycle repeated as one cycle for 6 days. In other words, administration of the drug and exposure to blue light (3 hours) were performed every day for 6 days to induce light-induced damage. On the next day following the last exposure to blue light, the mice were euthanized and the eyes were harvested. The specimens were fixed in 4% paraformaldehyde/PBS (phosphate buffer saline) at room temperature for 5 minutes. The specimens were then washed with PBS, and embedded in O.C.T. compound (Sakura Finetek). Retinal cryosections of 20 μm thick were sliced with a cryostat, mounted on glass slides, and dried at room temperature. The sections were washed twice with PBS, and blocked with blocking buffer (5% normal donkey serum and 0.1% TritonX-100 in PBS) at room temperature for 1 hour. The sections were reacted with primary antibodies at 4° C. overnight. The sections were washed three times with PBS, and reacted with secondary antibodies at room temperature for 2 hours. The primary antibodies used in this study were anti-Rhodopsin antibody (rhodopsin, rabbit polyclonal, Santa Cruz, 1:500 dilution), anti-S-opsin antibody (S-opsin (blue cone opsin), goat polyclonal, Santa Cruz, 1:500 dilution), and anti-M-opsin antibody (M-opsin (green cone opsin), rabbit polyclonal, Millipore, 1:500 dilution). […] All the fluorescence images were acquired under a confocal laser scanning microscope (LSM 700, Carl Zeiss).

For `C=CC[C@@H]1/C=C(\C)C[C@H](C)C[C@H](OC)[C@H]2O[C@@](O)(C(=O)C(=O)N3CCCC[C@H]3C(=O)O[C@H](/C(C)=C/[C@@H]3CC[C@@H](O)[C@H](OC)C3)[C@H](C)[C@@H](O)CC1=O)[C@H](C)C[C@@H]2OC` [tacrolimus, (3S,4R,5S,8R,9E,12S,14S,15R,16S,18R,19R,26aS)-5,19-Dihydroxy-3-{(1E)-2-[(1R,3R,4R)-4-hydroxy-3-methoxycyclohexyl]-1-methylethenyl}-14,16-dimethoxy-4,10,12,18-tetramethyl-8-(prop-2-en-1-yl)-15,19-epoxy-5,6,8,11,12,13,14,15,16,17,18,19,24,25,26,26a-hexadecahydro-3H-pyrido[2,1-c][1,4]oxaazacyclotricosine-1,7,20,21(4H,23H)-tetrone monohydrate], the “thickness of the photoreceptor layer” value [1] was “maintained and comparable to that of control mice without light-induced damage”, the “structure of the outer segment of the rod photoreceptor cells (anti-Rhodopsin antibody staining)” value ([2]; blue light about 450 nm, about 7000 lx, 3 hours daily, vs DMSO control, FIG. 1) was “maintained and comparable to that of control mice without light-induced damage” and the “structure of the cone photoreceptor cells (anti-S-opsin and anti-M-opsin antibody staining)” value ([2]; blue light about 450 nm, about 7000 lx, 3 hours daily, vs DMSO control, FIG. 2) was “maintained and comparable to that of control mice without light-induced damage”. For the same compound, the “degeneration of photoreceptor cells due to light exposure (overall conclusion)” value ([2]; mice with light-induced damage) was “inhibits the degeneration of photoreceptor cells due to light exposure”.
